Read-outs that look alike come from different tables or passages of the source.
Tests used:
[1] = molecular target: T1, serotonin transporter (SERT) (Rattus norvegicus, UniProt P31652); assay: Serotonin reuptake ([^3H]serotonin uptake) inhibition in rat brain synaptosomes; type: biochemical
T1 construct: Freshly removed whole brain minus cerebellum and caudate was homogenized; from tissue; host or cells: rat whole brain minus cerebellum and caudate, synaptosomes

[2] = molecular target: norepinephrine transporter (NET) (Rattus norvegicus, UniProt Q9WTR4); assay: Norepinephrine reuptake ([^3H]norepinephrine uptake) inhibition in rat brain synaptosomes
[3] = molecular target: dopamine transporter (DAT) (Rattus norvegicus, UniProt P23977); assay: Dopamine reuptake ([^3H]dopamine uptake) inhibition in rat brain synaptosomes; conditions: for IC50: DA Uptake EC50 (nM ± SD), rat caudate synaptosomes, 5 nM [^3H]dopamine, 15 min, 25° C., three experiments pooled
[4] = read-out: DA Uptake Emax (% I ± SD)

T1 sequence (P31652 whole entry): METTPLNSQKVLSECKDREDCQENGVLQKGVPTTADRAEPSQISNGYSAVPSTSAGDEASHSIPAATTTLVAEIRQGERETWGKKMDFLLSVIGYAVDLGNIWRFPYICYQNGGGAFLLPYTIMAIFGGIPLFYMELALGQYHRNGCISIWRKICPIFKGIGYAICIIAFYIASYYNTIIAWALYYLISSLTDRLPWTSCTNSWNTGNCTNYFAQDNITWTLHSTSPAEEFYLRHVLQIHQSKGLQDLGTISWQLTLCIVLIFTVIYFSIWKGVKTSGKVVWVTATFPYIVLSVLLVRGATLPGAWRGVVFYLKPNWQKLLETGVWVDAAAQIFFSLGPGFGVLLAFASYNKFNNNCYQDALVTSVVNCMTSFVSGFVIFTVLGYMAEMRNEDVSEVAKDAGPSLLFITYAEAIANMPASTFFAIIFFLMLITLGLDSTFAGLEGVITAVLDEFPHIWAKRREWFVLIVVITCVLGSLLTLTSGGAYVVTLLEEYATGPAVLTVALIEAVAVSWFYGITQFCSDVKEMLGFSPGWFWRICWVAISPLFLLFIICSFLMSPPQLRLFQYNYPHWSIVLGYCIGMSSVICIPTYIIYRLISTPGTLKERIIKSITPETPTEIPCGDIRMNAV
dopamine transporter (DAT), sequence (P23977 whole entry): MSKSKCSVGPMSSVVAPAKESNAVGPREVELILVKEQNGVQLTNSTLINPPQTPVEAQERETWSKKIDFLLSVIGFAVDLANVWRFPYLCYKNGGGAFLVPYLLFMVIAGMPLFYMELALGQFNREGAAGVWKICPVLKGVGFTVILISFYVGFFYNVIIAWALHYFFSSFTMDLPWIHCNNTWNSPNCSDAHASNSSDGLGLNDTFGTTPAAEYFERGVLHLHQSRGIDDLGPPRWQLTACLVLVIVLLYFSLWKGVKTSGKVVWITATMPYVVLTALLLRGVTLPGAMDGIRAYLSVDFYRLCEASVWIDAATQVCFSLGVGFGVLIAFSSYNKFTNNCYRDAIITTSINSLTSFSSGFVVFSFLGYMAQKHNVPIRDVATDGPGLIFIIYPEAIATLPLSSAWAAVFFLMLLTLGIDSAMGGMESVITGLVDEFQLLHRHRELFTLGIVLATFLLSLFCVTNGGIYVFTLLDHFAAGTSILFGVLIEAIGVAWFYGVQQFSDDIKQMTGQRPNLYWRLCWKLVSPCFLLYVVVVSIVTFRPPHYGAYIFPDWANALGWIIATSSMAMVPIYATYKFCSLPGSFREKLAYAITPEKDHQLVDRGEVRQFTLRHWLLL

OC(CNc1nc(-c2ccc3nccn3c2)nc2ccccc12)(c1ccccc1)c1ccccc1 [compound 96, 2-((2-(Imidazo[1,2-A]Pyridin-6-yl)Quinazolin-4-yl)Amino)-1,1-Diphenylethanol]
IC50 ([1]; rat brain synaptosomes, 5 nM [^3H]serotonin, 30 min, 25° C., read-out: 5HT Uptake EC50 (nM ± SD)): 16 ± 5 nM
Emax ([1]; rat brain synaptosomes, 5 nM [^3H]serotonin, maximal inhibition from dose-response fit, read-out: 5HT Uptake Emax (% I ± SD)): 55 ± 2%
NE Uptake Emax (% I ± SD) ([2]; rat brain synaptosomes, 10 nM [^3H]norepinephrine, maximal inhibition from dose-response fit): 65 ± 3 % I
IC50 ([2]; read-out: NE Uptake EC50 (nM ± SD), rat brain synaptosomes, 10 nM [^3H]norepinephrine, 10 min, 37° C.): 98 ± 23 nM
IC50 [3]: 9.2 ± 1.2 nM
Emax [3, 4]: 70 ± 1%

Nc1ncc(-c2nc(NCC(c3ccccc3)c3ccncc3)c3ccccc3n2)cn1 (stereo not drawn) [compound 107, 2-(2-Aminopyrimidin-5-yl)-N-(2-Phenyl-2-(Pyridin-4-yl)Ethyl)Quinazolin-4-Amine]
melting point: 219 °C
IC50 [3]: 197 ± 40 nM
Emax [3, 4]: 81 ± 3%

COc1ccc2nc(-c3ccc4[nH]ccc4c3)nc(NCC(c3ccccc3)c3ccccc3)c2c1 [compound 61, N-(2,2-Diphenylethyl)-2-(1H-Indol-5-yl)-6-Methoxyquinazolin-4-Amine]
melting point: 112 °C
IC50 [3]: 115 ± 20 nM
Emax [3, 4]: 80 ± 3%

Cc1cc2nccn2cc1-c1nc(NCC(C)c2ccccc2)c2ccccc2n1 (stereo not drawn) [compound 184, 2-(7-Methylimidazo[1,2-A]Pyridin-6-yl)-N-(2-Phenylpropyl)Quinazolin-4-Amine]
melting point: 208 to 212 °C
IC50 [3]: 5.3 ± 2 nM
Emax [3, 4]: 81 ± 4%

c1ccc(C(CNc2nc(-c3ccc4cnccc4c3)nc3ccccc23)c2ccccc2)cc1 [compound 133, N-(2,2-Diphenylethyl)-2-(Isoquinolin-6-yl)Quinazolin-4-Amine]
melting point: 242 to 244 °C
IC50 [3]: 194 ± 30 nM
Emax [3, 4]: 70 ± 2%

CC(C)C(CNc1nc(-c2ccc3nccn3c2)nc2ccccc12)c1ccccc1 (stereo not drawn) [compound 168, 2-(Imidazo[1,2-A]Pyridin-6-yl)-N-(3-Methyl-2-Phenylbutyl)Quinazolin-4-Amine]
melting point: 195 to 196 °C
IC50 [3]: 24 ± 5 nM
Emax [3, 4]: 75 ± 2%

c1ccc(C(CNc2nc(-c3cccs3)nc3ccccc23)c2ccccc2)cc1 [compound 6, N-(2,2-Diphenylethyl)-2-(thiophen-2-yl)quinazolin-4-amine]
melting point: 148 to 152 °C
IC50 [3]: 575 ± 51 nM
Emax [3, 4]: 78 ± 1%

c1ccc(C(CNc2nc(N3CCc4ccccc4C3)nc3ccccc23)c2ccccc2)cc1 [compound 193, 2-(3,4-Dihydroisoquinolin-2(1H)-yl)-N-(2,2-Diphenylethyl)Quinazolin-4-Amine]
melting point: 250 to 253 °C
IC50 [3]: 1.7 ± 0.4 nM
Emax [3, 4]: 77 ± 3%

CC(C)(C)OC(=O)n1cnc2cc(-c3nc(NCC(c4ccccc4)c4ccccc4)c4ccccc4n3)ccc21 [compound 62, Tert-Butyl 5-(4-((2,2-Diphenylethyl)Amino)Quinazolin-2-yl)-1H-Benzo [D]Imidazole-1-Carboxylate]
melting point: 183 °C
IC50 [3]: 4210 nM
Emax [3, 4]: < 100%

c1ccc(C(CNc2nc(-c3cccc4[nH]ccc34)nc3ccccc23)c2ccccc2)cc1 [compound 32, N-(2,2-Diphenylethyl)-2-(1H-Indol-4-yl)Quinazolin-4-Amine]
melting point: 100 °C
IC50 [3]: 189 ± 37 nM
Emax [3, 4]: 68 ± 3%

Cc1cc2nccn2cc1-c1nc(NC[C@H](c2ccccc2)n2cccc2)c2ccccc2n1 [compound 162, (S)-2-(7-Methylimidazo[1,2-A]Pyridin-6-yl)-N-(2-Phenyl-2-(1H-Pyrrol-1-yl)Ethyl)Quinazolin-4-Amine]
melting point: 196 to 198 °C
IC50 [3]: 2.2 ± 0.4 nM
Emax [3, 4]: 62 ± 2%

c1ccc(C(CNc2nc(-c3ccc4[nH]ncc4c3)nc3ccccc23)c2ccccc2)cc1 [compound 40, N-(2,2-Diphenylethyl)-2-(1H-Indazol-5-yl)Quinazolin-4-Amine]
melting point: 191 °C
IC50 [3]: 124 ± 37 nM
Emax [3, 4]: 74 ± 4%

COc1ncc(-c2nc(NCC(c3ccccc3)c3ccccc3)c3ccccc3n2)cn1 [compound 29, N-(2,2-Diphenylethyl)-2-(2-Methoxypyrimidin-5-yl)Quinazolin-4-Amine]
melting point: 67 °C
IC50 [3]: 36 ± 2 nM
Emax [3, 4]: 71 ± 1%

Cc1cc2nccn2cc1-c1nc(NCC(CN(C)C)c2ccccc2)c2ccccc2n1 (stereo not drawn) [compound 192, N1,N1-Dimethyl-N3-(2-(7-Methylimidazo[1,2-A]Pyridin-6-yl)Quinazolin-4-yl)-2-Phenylpropane-1,3-Diamine]
melting point: 250 to 252 °C
IC50 [3]: 10 ± 3 nM
Emax [3, 4]: 77 ± 4%

c1ccc2c(NCC(c3ccncc3)c3ccncc3)nc(N3CCc4[nH]ccc4C3)nc2c1 [compound 174, N-(2,2-Di(pyridin-4-yl)Ethyl)-2-(6,7-Dihydro-1H-Pyrrolo[3,2-C]Pyridin-5(4H)-yl)Quinazolin-4-Amine]
melting point: 224 to 226 °C
IC50 [3]: 31 ± 10 nM
Emax [3, 4]: 88 ± 4%

c1ccc(C(CNc2nc(-c3ccc4ncccc4c3)nc3ccccc23)c2ccccc2)cc1 [compound 50, N-(2,2-Diphenylethyl)-2-(Quinolin-6-yl)Quinazolin-4-Amine]
melting point: 92 °C
IC50 [3]: 26 ± 7 nM
Emax [3, 4]: 68 ± 3%

Cc1cc2nccn2cc1-c1nc(NCC(Oc2ccccc2)c2ccccc2)c2ccccc2n1 (stereo not drawn) [compound 177, 2-(7-Methylimidazo[1,2-A]Pyridin-6-yl)-N-(2-Phenoxy-2-Phenylethyl)Quinazolin-4-Amine]
melting point: 243 to 246 °C
IC50 [3]: 2.3 ± 0.5 nM
Emax [3, 4]: 75 ± 3%

CS(=O)(=O)Nc1ccc(-c2nc(NCC(c3ccccc3)c3ccncc3)c3ccccc3n2)cc1 (stereo not drawn) [SRI-30524]
IC50 ([1]; mean ± S.D., n = 3, read-out: SERT Uptake IC50): 8.7 ± 0.9 nM
NET Uptake Emax ([2]; mean ± S.D., n = 3): 76 ± 2%
IC50 ([2]; read-out: NET Uptake IC50, mean ± S.D., n = 3): 44 ± 6 nM

COCCNc1ncc(-c2nc(NCC(c3ccccc3)c3ccccc3)c3ccccc3n2)cn1 [compound 47, N-(2,2-Diphenylethyl)-2-(2-((2-Methoxyethyl)Amino)Pyrimidin-5-yl)Quinazolin-4-Amine]
melting point: 199 °C
IC50 [3]: 148 ± 40 nM
Emax [3, 4]: 73 ± 4%

Nc1ccc(-c2nc(NCC(c3ccccc3)c3ccccc3)c3ccccc3n2)cn1 [compound 88, 2-(6-Aminopyridin-3-yl)-N-(2,2-Diphenylethyl)Quinazolin-4-Amine]
melting point: 86 °C
IC50 [3]: 41 ± 13 nM
Emax [3, 4]: 86 ± 5%

Nc1ncc(-c2nc(NCC(c3ccccc3)c3ccccc3)c3ccccc3n2)cn1 [compound 44, 2-(2-Aminopyrimidin-5-yl)-N-(2,2-Diphenylethyl)Quinazolin-4-Amine]
melting point: 148 °C
IC50 [3]: 79 ± 19 nM
Emax [3, 4]: 81 ± 3%

Cc1cc2nccn2cc1-c1nc(NCC(c2cccnc2)c2ccc[nH]2)c2ccccc2n1 (stereo not drawn) [compound 156, 2-(7-Methylimidazo[1,2-A]Pyridin-6-yl)-N-(2-(Pyridin-3-yl)-2-(1H-Pyrrol-2-yl)Ethyl)Quinazolin-4-Amine]
melting point: 121 to 125 °C
IC50 [3]: 14 ± 3 nM
Emax [3, 4]: 68 ± 2%

c1ccc(C(CNc2nc(-c3ccncc3)nc3ccccc23)c2ccccc2)cc1 [compound 39, N-(2,2-Diphenylethyl)-2-(Pyridin-4-yl)Quinazolin-4-Amine]
melting point: 242 °C
IC50 [3]: 47 ± 6 nM
Emax [3, 4]: 78 ± 2%

c1ccc(C(CNc2nc(-c3ccc4cc[nH]c4c3)nc3ccccc23)c2ccccc2)cc1 [compound 31, N-(2,2-Diphenylethyl)-2-(1H-indol-6-yl)Quinazolin-4-Amine]
melting point: 102 °C
IC50 [3]: 89 ± 23 nM
Emax [3, 4]: 81 ± 4%

c1ccc(C(c2ccccc2)N2CC(Nc3nc(-c4ccc5nccn5c4)nc4ccccc34)C2)cc1 [compound 148, N-(1-Benzhydrylazetidin-3-yl)-2-(Imidazo[1,2-A]Pyridin-6-yl)Quinazolin-4-Amine]
melting point: 67 to 69 °C
IC50 [3]: 91 ± 21 nM
Emax [3, 4]: 81 ± 3%

COC(=O)[C@H]1[C@@H](OC(=O)c2ccccc2)C[C@@H]2CC[C@H]1N2C [cocaine, reference compound]
Emax ([1]; read-out: SERT Uptake Emax): 98 ± 2%
NET Uptake Emax ([2]; mean ± S.D., n = 3): 102 ± 2%
Emax ([3]; read-out: DAT Uptake Emax): 100 ± 2%

CCN(CC)C(=O)[C@]1(c2ccccc2)C[C@@H]1CNc1nc(-c2ccc3nccn3c2)nc2ccccc12 [compound 170, (1R,2S)—N,N-Diethyl-2-(((2-(Imidazo[1,2-A]Pyridin-6-yl)Quinazolin-4-yl)Amino)Methyl)-1-Phenylcyclopropanecarboxamide]
melting point: 221 to 223 °C
IC50 [3]: 78 ± 14 nM
Emax [3, 4]: 72 ± 2%

— patent US9873702B2, “Heterocyclic compounds as biogenic amine transport modulators” (Southern Research Institute, priority 2014, dated 2018)
